We go through 41 compounds from ChEMBL document CHEMBL5528063, “Antitrypanosomal Chloronitrobenzamides” (J Med Chem, 2024).

Active and inactive are the calls of the source. The calls are words filed in the database; no cut-off is given here.

In general, EC50 refers to the concentration needed to bring the measured effect to its halfway point. One may read the half-life as how long it takes for the measured level to halve. Usually solubility stands for the dissolved amount per volume that the medium holds. A higher solubility goes with a readily soluble substance.

Data set [1] relates to Trypanosoma brucei brucei. As to the kind of experiment: Antitrypanosomal activity against Trypanosoma brucei brucei 427 assessed as inhibition of parasite proliferation incubated for 48 hrs by CellTiter-Glo luminescent assay. It is filed as functional, organism-based. Conditions: Trypanosoma brucei, 427, 48 h. A general note: ATP-based viability assays read luminescence as a measure of living cells.

A short description of data set [2]: Cytotoxicity against human BJ cells assessed as inhibition of cell growth incubated for 72 hrs by CellTiter-Glo luminescence assay. The format is toxicity, cell-based.
Data set [3] in a line: Metabolic stability in […] mouse liver microsomes assessed as half-life at 20 uM measured after 2 hrs by UPLC-MS analysis. It is filed as ADME, Microsome. On the technique in general: Liver microsomes are vesicles of endoplasmic reticulum, rich in cytochrome P450 enzymes.
Data set [4] can be described thus: Aqueous solubility of compound in 1-propanol at pH 7.4 incubated for 18 hrs by UV spectrum analysis. Conditions: for solubility at 18 h: 1-propanol (aqueous, pH 7.4), pH 7.4. It is filed as physicochemical.
Data set [5] relates to Trypanosoma brucei brucei. Kind of data set: Trypanocidal activity against Trypanosoma brucei brucei 427 assessed as reduction in parasitemia at 2.2 uM incubated for 4 days by clonal dilution based CellTiter-Glo assay. It is filed as functional, organism-based. The note with it: time 4.0 day.
In data set [6] the test system is Trypanosoma brucei brucei. Kind of data set: Antitrypanosomal activity against Trypanosoma brucei brucei 427 assessed as inhibition of parasite proliferation at 0.7 to 15000 nM incubated for 48 hrs by CellTiter-Glo luminescent assay. The note with it: dose 0.7-15000 nM. It is filed as functional, organism-based.

`Cc1ccc(-c2nc3ncccc3o2)cc1NC(=O)c1cc([N+](=O)[O-])ccc1Cl`: the EC50 in data set [1] was determined as 0.55 µM. Moreover, in data set [2], the EC50 at 72 h was more than 25 µM. The half-life at 20 µM in data set [3] is 1.2 min. In data set [4], this compound yielded a solubility at 18 h of less than 1.56 µM.
On to `Cc1ccc(-c2nc3ccccc3s2)cc1NC(=O)c1cnccc1F`, for which the EC50 in data set [1] was more than 10.6 µM. Besides, the EC50 at 72 h in data set [2] is more than 18 µM.
With `Cc1ccc(-c2nc3ccccc3s2)cc1NC(=O)c1cc([N+](=O)[O-])ccc1Cl`, the EC50 in data set [1] is 0.039 µM. The EC50 at 72 h in data set [2] is more than 25 µM. Further, the half-life at 20 µM in data set [3] was more than 240 min. Besides, the solubility entry in data set [4] (buffer, pH 7.4, 18 h) was “Insoluble(Bld)”.
Turning to `O=C(Nc1cccc(-c2nccs2)n1)c1cnccc1Cl`, the concentration for a half-maximal effect (EC50) in data set [1] is more than 44 µM. Moreover, the EC50 at 72 h in data set [2] is more than 18 µM.
In the case of `CC(=O)Nc1ccc(Cl)c(C(=O)Nc2cc(-c3nc4ccccc4s3)ccc2C)c1`, the EC50 in data set [1] is more than 7 µM. Moreover, the EC50 at 72 h in data set [2] is more than 15 µM.
As for `Cc1ccc(-c2nc3ccccc3s2)cc1NC(=O)c1cc(C(=O)O)ccc1Cl`, in data set [1], the EC50 is more than 5 µM. Besides, the EC50 at 72 h in data set [2] is more than 15 µM.
For the compound `Cc1ccc(-c2nc3ccccc3s2)cc1NC(=O)c1cnccc1C#N`, in data set [1], the EC50 was more than 7 µM. Besides, in data set [2], the EC50 at 72 h is more than 13 µM.
`O=C(Nc1cccc(-c2nc3ccccc3s2)n1)c1cc([N+](=O)[O-])ccc1Cl`: the EC50 in data set [1] is more than 7 µM. Moreover, in data set [2], the EC50 at 72 h was more than 15 µM.
Turning to `O=C(Nc1cncc(-c2nc3ccccc3s2)c1)c1cc([N+](=O)[O-])ccc1Cl`, in data set [1], the EC50 is more than 8 µM. Moreover, the concentration giving a half-maximal response (EC50) at 72 h in data set [2] was more than 15 µM.
With `Cc1nc(-c2cccc(NC(=O)c3cc([N+](=O)[O-])ccc3Cl)c2)sc1C`, the EC50 in data set [1] was determined as 2.22 µM. Besides, the EC50 at 72 h in data set [2] was more than 17 µM.
`Cc1ccc(-c2nc3ccccc3s2)cc1NC(=O)c1cnccc1C(F)(F)F`: the EC50 in data set [1] was more than 7 µM. Also, the EC50 at 72 h in data set [2] is more than 14 µM.
`N=C(N)c1ccc(OCCCCCOc2ccc(C(=N)N)cc2)cc1`: the outcome in data set [5] was Active.
For `CSc1ccc(Cl)c(C(=O)Nc2cccc(-c3nc4ccccc4s3)c2)c1`, in data set [1], the EC50 was more than 33 µM. Further, in data set [2], the EC50 at 72 h is more than 25 µM.
For the compound `Cc1ccc(-c2nnn[nH]2)cc1NC(=O)c1cc([N+](=O)[O-])ccc1Cl`, the EC50 in data set [1] was more than 8 µM. Also, the EC50 at 72 h in data set [2] is more than 18 µM.
For the compound `O=C(Nc1cccc(-c2nc3ccccc3s2)c1)c1cc([N+](=O)[O-])ccc1Cl`, the EC50 in data set [1] was 0.1 µM. Further, the EC50 at 72 h in data set [2] was more than 15 µM. In addition, the half-life at 20 µM in data set [3] was 11 min. This compound also showed a solubility at 18 h in data set [4] of less than 1 µM.
For the compound `O=C(Nc1cccc(-c2nccs2)c1)c1cc([N+](=O)[O-])ccc1Cl`, the EC50 in data set [1] is more than 7 µM. In data set [2], the EC50 at 72 h is more than 18 µM.
Turning to `C[S+]([O-])c1ccc(Cl)c(C(=O)Nc2cccc(-c3nc4ccccc4s3)c2)c1` (stereo not given), in data set [1], the EC50 was more than 8 µM. Further, the EC50 at 72 h in data set [2] is more than 25 µM.
On to `CS(=O)(=O)c1ccc(Cl)c(C(=O)Nc2cccc(-c3nc4ccccc4s3)c2)c1`, for which, in data set [1], the EC50 amounted to 4.56 µM. The EC50 at 72 h in data set [2] was more than 25 µM.
`O=C(NC1CCCC(c2nc3ccccc3s2)C1)c1cc([N+](=O)[O-])ccc1Cl` (stereo not given): in data set [1], the EC50 is more than 7 µM. The EC50 at 72 h in data set [2] was more than 15 µM.
Turning to `Cc1ccc(-c2nc3ccccc3s2)cc1NC(=O)c1cc(C#N)ccc1Cl`, the half-maximal effective concentration (EC50) in data set [1] is more than 6 µM. Further, in data set [2], the EC50 at 72 h is more than 15 µM.
Take `Cc1ccc(-c2nc3ccccc3s2)cc1NC(=O)c1cnccc1O`: the EC50 in data set [1] was more than 8 µM. Further, the EC50 at 72 h in data set [2] is more than 14 µM.
Turning to `Cc1ccc(-c2nc3ccccc3s2)cc1NC(=O)c1cc(C(N)=O)ccc1Cl`, the concentration for a half-maximal effect (EC50) in data set [1] is more than 11 µM. Besides, the EC50 at 72 h in data set [2] was more than 22 µM.
As to `Cc1ccc(-c2nc3ccccc3s2)cc1NC(=O)c1cc([N+](=O)[O-])ccc1C(F)(F)F`, the EC50 in data set [1] is more than 7 µM. In addition, the EC50 at 72 h in data set [2] is more than 15 µM.
Turning to `O=C(Nc1ccc(Cl)c(-c2nc3ncccc3o2)c1)c1cc([N+](=O)[O-])ccc1Cl`, in data set [1], the EC50 was more than 6 µM. The EC50 at 72 h in data set [2] is more than 26 µM.
As to `Cc1ccc(-c2nc3ccccc3s2)cc1NC(=O)c1cc(F)ccc1Cl`, the EC50 in data set [1] is more than 8 µM. Besides, the EC50 at 72 h in data set [2] is more than 15 µM.
Taken in the same sequence, the figures for `Cc1ccc(-c2nc3ccccc3s2)cc1NC(=O)c1cc(C(F)(F)F)ccc1Cl` were more than 6 µM and more than 15 µM.
In the case of `Cc1ccc(-c2nc3ccccc3s2)cc1NC(=O)c1cc([N+](=O)[O-])ccc1O`, the EC50 in data set [1] is more than 7 µM. Also, the EC50 at 72 h in data set [2] was more than 14 µM.
For the compound `Cc1ccc(-c2nc3ccccc3s2)cc1NC(=O)c1cc(NC(=O)OC(C)(C)C)ccc1Cl`, the EC50 in data set [1] is more than 8 µM. In addition, the EC50 at 72 h in data set [2] is more than 15 µM.
With `COc1ccc([N+](=O)[O-])cc1C(=O)Nc1cc(-c2nc3ccccc3s2)ccc1C`, the EC50 in data set [1] was more than 1 µM. Further, in data set [2], the EC50 at 72 h was more than 2 µM.
For `O=C(Nc1cccc(-c2nc3ccccc3s2)n1)c1cnccc1Cl`, the EC50 in data set [1] came out at 0.09 µM. Moreover, the EC50 at 72 h in data set [2] is more than 15 µM. Besides, in data set [3], the half-life at 20 µM turned out to be 2 min. In data set [4], this compound showed a solubility at 18 h of less than 1.56 µM.
For the compound `Cc1ccc(-c2nnn[nH]2)nc1NC(=O)c1cnccc1Cl`, the EC50 at 72 h in data set [2] is more than 18 µM. Besides, in data set [6], the outcome was inactive.
`COc1ccncc1C(=O)Nc1cc(-c2nc3ccccc3s2)ccc1C`: the EC50 in data set [1] is more than 12 µM. Besides, the EC50 at 72 h in data set [2] was more than 21 µM.
`O=C(Nc1cccc(-c2ncc[nH]2)c1)c1cc([N+](=O)[O-])ccc1Cl`: the EC50 in data set [1] is more than 8 µM. For the same compound, the EC50 at 72 h in data set [2] was more than 18 µM.
As to `Cc1ccc(-c2nc3ccccc3s2)cc1NC(=O)c1cnccc1Cl`, in data set [1], the EC50 turned out to be 0.044 µM. Further, the EC50 at 72 h in data set [2] is more than 25 µM. The half-life at 20 µM in data set [3] was found to be 12 min. Besides, the solubility at 18 h in data set [4] is less than 1 µM.
As for `O=C(Nc1cncc(-c2nc3ccccc3s2)c1)c1cnccc1Cl`, the EC50 in data set [1] is more than 5 µM. Also, in data set [2], the EC50 at 72 h was more than 11 µM.
For `COC(=O)c1ccc(Cl)c(C(=O)Nc2cc(-c3nc4ccccc4s3)ccc2C)c1`, the EC50 in data set [1] is more than 16.1 µM. Moreover, the concentration for a half-maximal effect (EC50) at 72 h in data set [2] is more than 28 µM.
As to `Cc1ccc(-c2nc3ccccc3s2)cc1NC(=O)c1cc(N)ccc1Cl`, the EC50 in data set [1] was more than 5 µM. Moreover, in data set [2], the EC50 at 72 h was more than 15 µM.
On to `Cc1ccc(-c2nc3ccccc3s2)cc1NC(=O)c1cc([N+](=O)[O-])ccc1C#N`, for which the EC50 in data set [1] is more than 9 µM. Besides, in data set [2], the EC50 at 72 h is more than 17 µM.
On to `O=C(Nc1cccc(-c2ncco2)c1)c1cc([N+](=O)[O-])ccc1Cl`, for which, in data set [1], the EC50 was more than 8 µM. For the same compound, the EC50 at 72 h in data set [2] was more than 18 µM.
As for `O=C(Nc1cc(-c2nc3ccccc3s2)ccc1Br)c1cc([N+](=O)[O-])ccc1Cl`, the EC50 in data set [1] is 0.22 µM. Further, the EC50 at 72 h in data set [2] was more than 20 µM. Besides, the half-life at 20 µM in data set [3] was determined as 1.7 min. Also, the solubility at 18 h in data set [4] was less than 1.56 µM.
As to `Cc1ccc(-c2nc3ccccc3s2)cc1NC(=O)c1cc([N+](=O)[O-])ccc1F`, the half-maximal effective concentration (EC50) in data set [1] turned out to be 0.004 µM. In addition, in data set [2], the EC50 at 72 h was more than 17 µM. Also, the half-life at 20 µM in data set [3] is 21 min. Further, the solubility at 18 h in data set [4] is less than 1.56 µM.
